The record followed here is patent US20210060165A1, “Light-Controlled Antibacterial Agent Composed of Linear Cationic Oligopeptide and Multi-arm B-Cyclodextrin” (JILIN UNIVERSITY, priority 2019, published 2021).

Experiment in all cases: growth curve (OD600) in LB liquid culture medium
Format in all cases: cell-based
What all share (conditions): separate or as aggregates

The subject of assay [1] is Pseudomonas aeruginosa. The protocol: (§1) Preparation of LB liquid culture medium: dissolving 1-10 g of peptone, 0.5-5 g of yeast extract and 1-10 g of sodium chloride in 100-980 mL of redistilled water, and performing high temperature sterilization on same at 121° C. for 20 min to obtain a fresh LB liquid culture medium.
(§2) Picking bacterial strains (gram-negative bacteria such as Escherichia coli, […], Pseudomonas aeruginosa, and gram-positive bacteria such as Staphylococcus aureus) into 20-30 mL of (containing 20-25 μL of ampicillin) the above fresh LB liquid culture medium, placing in a constant temperature shaker with a revolution of 180 rpm and a temperature of 37° C. for culture for 11-15 h, thus obtaining the LB culture solution containing bacterial strains; then diluting the above LB culture solution containing bacteria strains with a blank LB liquid culture medium to an OD600 (OD600 refers to the light absorption value of the bacteria strain culture solution at 600 nm) about 0.035.
(§3) Antibacterial property of cross-linked aggregates in LB liquid culture medium: adding the diluted LB culture solution (the LB culture solution contains bacteria and ampicillin) containing bacterial strains into a clean test tube, adding the aqueous solution of the light-controlled antibacterial agent composed of the linear cationic oligopeptide and multi-arm β-cyclodextrin into the test tube, and controlling the concentration of the final linear cationic oligopeptide to 15-60 μM. Placing the prepared sample in the constant temperature shaker at 37° C. for culture, and controlling the revolution of the shaker to be 180 rpm. Determining the corresponding optical density (OD600) of the culture solution at different times (0-540 min) with a nucleic acid protein analyzer to evaluate the antibacterial activity of the cross-linked aggregates.
(§4) Preparation of LB liquid culture medium: dissolving 10 g of peptone, 5 g of yeast extract and 10 g of sodium chloride in 980 mL of redistilled water, and performing high temperature sterilization on same at 121° C. for 20 min to obtain a fresh LB liquid culture medium. Picking Escherichia coli (BL21-gold (DE3),) into 25 mL (containing 25 μL of ampicillin) of the above fresh LB liquid culture medium, placing in a constant temperature shaker with a revolution of 180 rpm and a temperature of 37° C. for culture for 12 h. Then diluting the obtained Escherichia coli culture solution with the fresh LB liquid culture medium to an OD600 of 0.035.
(§5) respectively taking 4 parts of the sterilized Escherichia coli culture solution (2.0 mL each) into 4 sterile test tubes, numbered as 1, 2, 3, and 4. […]

In assay [2] the test system is Staphylococcus aureus. The protocol: as §1, §2, §3, §4, §5
Assay [3] has as its system Bacillus subtilis. The protocol: as §1, §2, §3, §4, §5
Assay [4] concerns Escherichia coli (BL21-gold (DE3)). How it is done: as §1, §2, §3, §4, §5
[5] abbreviates: Embodiment 4, 37° C., azoRARARVRazo-NH2 30 μM, three-arm β-cyclodextrin 20 μM.
Where [6] appears, read: Embodiment 6, 37° C., azoKAKAKazo-NH2 60 μM, three-arm β-cyclodextrin 40 μM.
[7] abbreviates: Embodiment 3, 37° C., azoKLKLKLKazo-NH2 30 μM, three-arm β-cyclodextrin 20 μM.
The mark [8] stands for this setting: Embodiment 7, 37° C., azoRARVRazo-NH2 50 μM, three-arm β-cyclodextrin 33.33 μM.
The mark [9] stands for this setting: Embodiment 2, 37° C., peptide 30 μM, cyclodextrin 30 μM.
The mark [10] stands for this setting: Embodiment 9, 37° C., azoKVKVKVKazo-NH2 30 μM, three-arm β-cyclodextrin 10 μM, two-arm β-cyclodextrin 15 μM.
Where [11] appears, read: Embodiment 5, 37° C., azoRIRIRARazo-NH2 20 μM, two-arm β-cyclodextrin 20 μM.

Consider `OCC1OC2OC3C(CO)OC(OC4C(CO)OC(OC5C(Cn6cc(-c7cc(-c8cn(CC9OC%10OC%11C(CO)OC(OC%12C(CO)OC(OC%13C(CO)OC(OC%14C(CO)OC(OC%15C(CO)OC(OC%16C(CO)OC(OC9C(O)C%10O)C(O)C%16O)C(O)C%15O)C(O)C%14O)C(O)C%13O)C(O)C%12O)C(O)C%11O)nn8)cc(-c8cn(CC9OC%10OC%11C(CO)OC(OC%12C(CO)OC(OC%13C(CO)OC(OC%14C(CO)OC(OC%15C(CO)OC(OC%16C(CO)OC(OC9C(O)C%10O)C(O)C%16O)C(O)C%15O)C(O)C%14O)C(O)C%13O)C(O)C%12O)C(O)C%11O)nn8)c7)nn6)OC(OC6C(CO)OC(OC7C(CO)OC(OC8C(CO)OC(OC1C(O)C2O)C(O)C8O)C(O)C7O)C(O)C6O)C(O)C5O)C(O)C4O)C(O)C3O` (stereo not drawn) [three-arm β-cyclodextrin], for which the “optical density (OD600) at end of culture” value in assay [1] (setting [5]) was 1.15; in assay [1] (setting [6]), 1.25; in assay [2] (setting [7]), 1.25; in assay [2] (setting [8]), 1.22; in assay [3] (setting [9]), 1.15; in assay [3] (setting [10]) it was 1.23. In addition, the “optical density (OD600) at start of culture” value in assay [1] (setting [5]) was 0.039; in assay [1] (setting [6]), 0.035; in assay [2] (setting [7]), 0.043; in assay [2] (setting [8]) it was 0.041; in assay [3] (setting [9]), 0.036; in assay [3] (setting [10]), 0.039. The “optical density (OD600) at start of incubation” value in assay [4] (Embodiment 1, 37° C., 0 min, azoKVKVKVKazo-NH2 30 μM, three-arm β-cyclodextrin 20 μM) worked out at 0.043. In addition, the “optical density (OD600) at end of incubation” value in assay [4] (Embodiment 1, 37° C., 9 h (540 min), azoKVKVKVKazo-NH2 30 μM, three-arm β-cyclodextrin 20 μM) amounted to 1.61.
For the compound `OCC1OC2OC3C(CO)OC(OC4C(CO)OC(OC5C(Cn6cc(COc7ccc(OCc8cn(CC9OC%10OC%11C(CO)OC(OC%12C(CO)OC(OC%13C(CO)OC(OC%14C(CO)OC(OC%15C(CO)OC(OC%16C(CO)OC(OC9C(O)C%10O)C(O)C%16O)C(O)C%15O)C(O)C%14O)C(O)C%13O)C(O)C%12O)C(O)C%11O)nn8)cc7)nn6)OC(OC6C(CO)OC(OC7C(CO)OC(OC8C(CO)OC(OC1C(O)C2O)C(O)C8O)C(O)C7O)C(O)C6O)C(O)C5O)C(O)C4O)C(O)C3O` (stereo not drawn) [two-arm β-cyclodextrin], in assay [4] (setting [11]), the “optical density (OD600) at end of culture” value came out at 1.21 and the “optical density (OD600) at start of culture” value was determined as 0.034.
